In ChEMBL document CHEMBL1134954, “Synthesis and preliminary evaluation of trans-3,4-conformationally-restricted glutamate and pyroglutamate analogues as novel EAAT2 inhibitors” (2002):

Tests used:
Assay type in all cases: functional
Design in all cases: scale not given: the % may be the effect or the level left
[1] = Potential inhibitory activity of EAAT3 by the ability (500 uM) to attenuate the Na-dependent uptake of [3H]D-aspartate (25 uM) into C6 rat glioma cells
SNB-19 = experiment: Inhibitory activity (500 uM) against Cl-dependent uptake of [3H]L-glutamate (100 uM) into SNB-19 human astrocytoma cells to determine activity at system Xc glutamate/cystine exchanger
Rattus norvegicus [2] = species: Rattus norvegicus; experiment: Inhibitory activity (250 uM) against ATP dependent uptake of [3H]L-glutamate (250 uM) by isolated synaptic vesicles from rat forebrain to quantify activity at vesicular glutamate transporter
Rattus norvegicus [3] = species: Rattus norvegicus; experiment: Potential inhibitory activity of EAAT2 by the ability (250 uM) to attenuate the Na-dependent uptake of [3H]D-aspartate (5 uM) into synaptosomes of rat forebrain; details: Brain

Question: With `NC(C(=O)O)[C@@H]1C2C=CC(C2)[C@H]1C(=O)O` (stereo partly specified) as the compound, how does the Activity [1] read?
Answer: 87%

Question: What about the Activity (SNB-19) of the same compound?
Answer: 88%

Question: And the Activity (Rattus norvegicus [2])?
Answer: 93%

Question: And the Activity (Rattus norvegicus [3])?
Answer: 35%

Question: Which Activity (Rattus norvegicus [3]) does the source give for `CC(C)[C@H]1CN[C@H](C(=O)O)[C@H]1CC(=O)O` here?
Answer: 22%

Question: With `CC1=C(C)C[C@H]2C(C(=O)O)NC(=O)[C@@H]2C1` (stereo partly specified) as the compound, how does the Activity [1] read?
Answer: 97%

Question: And the Activity (SNB-19)?
Answer: 103%

Question: What about the Activity (Rattus norvegicus [2]) of the same compound?
Answer: 96%

Question: What about the Activity (Rattus norvegicus [3]) of the same compound?
Answer: 77%

Question: Which Activity [1] does the source give for `NC(C(=O)O)[C@@H]1C2C=CC(CC2)[C@H]1C(=O)O` (stereo partly specified) here?
Answer: 97%

Question: And the Activity (SNB-19)?
Answer: 88%

Question: What about the Activity (Rattus norvegicus [2]) of the same compound?
Answer: 104%

Question: And the Activity (Rattus norvegicus [3])?
Answer: 70%

Question: For `N[C@@H](CCC(=O)O)C(=O)O`, which Activity (Rattus norvegicus [3]) is on record?
Answer: 28%

Question: What does the source list for `O=C(O)C1NC(=O)[C@@H]2CC=CC[C@@H]12` (stereo partly specified)?
Answer: Activity [1]: 93%; Activity (SNB-19): 89%; Activity (Rattus norvegicus [2]): 103%; Activity (Rattus norvegicus [3]): 53%

Question: For `CC1=C(C)C[C@@H](C(N)C(=O)O)[C@H](C(=O)O)C1` (stereo partly specified), which Activity [1] is on record?
Answer: 100%

Question: What about the Activity (SNB-19) of the same compound?
Answer: 104%

Question: And the Activity (Rattus norvegicus [2])?
Answer: 99%

Question: And the Activity (Rattus norvegicus [3])?
Answer: 71%

Question: What does the source list for `NC(C(=O)O)[C@@H]1CC=CC[C@H]1C(=O)O` (stereo partly specified)?
Answer: Activity [1]: 95%; Activity (SNB-19): 101%; Activity (Rattus norvegicus [2]): 85%; Activity (Rattus norvegicus [3]): 38%
